In PMC4349623 (BMC Biochemistry, 2015):
Values belong to the compound of their own block, whether it stands above or below them.

Assays:
CaM = experiment: Stern-Volmer quenching of CaM-bound ANS by acrylamide
From the text: Given that steady state fluorescence cannot differentiate the intensity contribution from individual ANS molecules, we utilized time-correlated single-photon counting (TCSPC) spectrometry to measure the ANS fluorescence decay. […] The data was best fit with a three-exponential-decay function. The shortest lifetime (τ3 = ~0.3 ns) was assigned to that of free ANS molecules, which was confirmed by using an ANS solution alone. Note that this lifetime reaches the detection limitation of our instrument and therefore, it cannot be determined precisely. […] The fitting also provided the fractional (or relative amplitude), fs, which weights the “amount” of the emitting species, and the normalized pre-exponential value, Bs, which provides the relative concentration of each species. […] In other words, the long lifetime component of ANS is one order less quenched by acrylamide.
For a quenching that is purely by collision, the steady-state and lifetime Stern-Volmer quenching equation can be expressed as4 <τo>/<τ>=1+KsvQandKsv=kqxτ0 where τ and τo are the lifetime in the presence and absence of the quencher, and kq is the quenching rate constant.

[1] = ANS binding by isothermal titration calorimetry; conditions: 30 mM Hepes, 25°C
From the text: The heat evolved is proportional to the amount of the ANS/Ca^2+-CaM complex formation. […] We fit the data with “one set of sites” to obtain the apparent association binding constant (Kapp) of 2.10 ± 0.11 × 10^3 M^−1 for Ca^2+-CaM (Table 1), consistent with a previous report. […] Based on our studies, the middle point from the ITC thermogram (and the inflection point in the corresponding derived binding isotherm) indicates approximately 4–6 bound-ANS molecules in Ca^2+-CaM. Therefore, Kapp is proportional to the actual number of protein-bound ANS molecules in the experimental condition. In the text below, we will discuss Kapp as the ANS binding affinity for simplicity.
The ITC data were fit with a “one set of sites” model as described in the Experimental section.
The ITC experiments were carried out on a VP-ITC (GE, Pittsburgh, PA). Protein samples were buffer-exchanged to the desired buffer. Peptide concentration was prepared by adding buffer to the peptide powder as measured by weight. All samples were degassed 15–30 min before loading. To avoid buffer mismatch, the syringe and sample cells were rinsed with the desired buffer prior to sample loading. A typical titration was performed by sequential injections every 120–180 sec of 5–10 μL solution at 25°C. The ITC raw data was corrected for the heat of titrant dilution determined by an experiment conducted in identical conditions except that no protein was contained in the sample cell. The corrected data, after integration of heat evolved, was fitted with Origin software provided by the manufacturer to determine Ka and the observed or apparent ΔH (ΔHapp).

[2] = Far-UV circular dichroism; conditions: Ca^2+-bound, 0.1 mg/ml protein, 10 mM Tris, pH 7.5
Procedure: The CD spectra were recorded in a JASCO J-715 instrument (JASCO Corporation, Japan) equipped with a temperature control unit. CD spectra were recorded using a cylindrical 0.1 cm path length quartz curvet and were shown as the average of 3–6 scans using a spectra bandwidth of 1.0 nm. In all measurements, 0.1 mg/ml proteins in 10 mM Tris, pH 7.5 with 1–2 mM Ca^2+ or 0.5 mM EDTA were scanned from 190 nm to 260 nm.

[3] = ANS steady-state fluorescence (hydrophobicity probe); type: biochemical; conditions: for ANS fold enhancement: pH 7.5, 0.1 M NaCl, 2 mM Ca^2+
From the text: It is well known that the exposure of the hydrophobic patches of CaM is essential for target protein recognition. Such hydrophobic exposure can be photometrically monitored by its interaction with extrinsic 1-anilinonaphthalene 8-sulfonate (ANS) and 2-p-toluidinyl-naphthalene-6-sulfonate (TNS) molecules. These two fluorophores have been widely used as a probe for measuring hydrophobicity. ANS is a fluorescent dye which emits very weak fluorescence in water due to its excited charge transfer (CT) state that is quenched easily by water molecules. […] ANS fluorescence increases dramatically in a hydrophobic environment or when the rotational motion of its phenylamino group is restricted. […] The fluorescence increased when Ca^2+ was included in the mixture.
ANS fluorescence was excited at 350 nm.
Absorption measurements were carried out using a UV-1800 double-beam spectrometer (Shimadzu, Kyoto, Japan). The fluorescence spectra were recorded on a FluoroMax-3P (Horiba Scientific) equipped with a temperature control unit. For intrinsic Trp fluorescence, the excitation wavelength of 295 nm was chosen. […] The samples containing ANS or dansyl-labeled proteins were excited at 350 and 370 nm, respectively. The slit widths of 2 and 5 nm were typically chosen for excitation and emission, respectively, to eliminate photobleaching.

[4] = target: CaM(1TnC): domain 1 of TnC and domains 2, 3 and 4 of CaM; experiment: ITC; 1 mM Orai-CMBD titrated into 30 uM CaM or chimera; 10 mM Tris, pH 7.5, 0.1 M NaCl, 2 mM Ca2+, 25°C; 'one set of sites' or two sequential binding sites model
dansyl-labeled CaM(1TnC) = experiment: stopped-flow fluorescence (dissociation chase); 5 uM dansyl-labeled CaM or chimera with 15 uM Orai-CMBD, 2 mM Ca2+, mixed with 75 uM unlabeled CaM, 2 mM Ca2+; dansyl fluorescence decay (excitation 370 nm), single exponential fit
[5] = ref [13]; cited from earlier work
From the text: It is well known that the exposure of the hydrophobic patches of CaM is essential for target protein recognition. Such hydrophobic exposure can be photometrically monitored by its interaction with extrinsic 1-anilinonaphthalene 8-sulfonate (ANS) and 2-p-toluidinyl-naphthalene-6-sulfonate (TNS) molecules. These two fluorophores have been widely used as a probe for measuring hydrophobicity. ANS is a fluorescent dye which emits very weak fluorescence in water due to its excited charge transfer (CT) state that is quenched easily by water molecules.

nNOS = conditions: ref [12]; cited from earlier work
From the text: (§1) Given the structural similarities and functional differences of CaM an ...

Ca^2+-ATPase = conditions: ref [13]; cited from earlier work
From the text: as §1

[6] = no reference given; cited from earlier work
From the text: as §1

Compound: O=S(=O)(O)c1cccc2cccc(Nc3ccccc3)c12 [ANS, 1-anilinonaphthalene 8-sulfonate]
- kq (quenching rate constant), short lifetime (CaM; τ1 ANS): 2.2e+08 M⁻¹ s⁻¹
- kq (quenching rate constant), τ2 (CaM; τ2 ANS): 1.9e+07 M⁻¹ s⁻¹

- K app ([1]; in the absence of salt, pH 7.5, 2 mM Ca^2+, apparent association constant, one set of sites): 2.10 ± 0.11 × 10^3 M^−1
- K app ([1]; in the presence of salt and Orai-CMBD, pH 7.5, 0.1 M NaCl, 2 mM Ca^2+): 3.43 ± 0.65 × 10^3 M^−1
- K app ([1]; in the presence of salt, pH 7.5, 0.1 M NaCl, 2 mM Ca^2+, apparent association constant): 3.69 ± 0.08 × 10^3 M^−1
- increase of ANS fluorescence intensity on Orai-CMBD binding ([3]; Ca^2+-bound protein): ~ 10%
Compound: Calmodulin [CaM]
- ellipticity ratio θ220/θ209 [2]: ~ 1
- ANS fluorescence change ([3]; absence of Ca^2+): exhibited no change
- ANS enhancement ([3]; in the absence of salt, 30 mM Hepes, pH 7.5, 2 mM Ca^2+, spectra integration vs apo protein, at least three repeats, three protein batches): 3.01 ± 0.12 fold
- ANS fold enhancement ([3]; in the presence of salt and Orai-CMBD, 30 mM Hepes, vs apo protein): 3.87 ± 0.10 fold
- ANS fold enhancement ([3]; in the presence of salt, 30 mM Hepes, spectra integration vs apo protein): 3.49 ± 0.07 fold

- Ka1 (first of two sequential sites) [4]: 757000 M⁻¹
- Ka2 (second of two sequential sites) [4]: 17000 M⁻¹
- dH1 (first of two sequential sites) [4]: -4.99 kcal/mol
- dH2 (second of two sequential sites) [4]: -3.33 kcal/mol
- stoichiometry N [4]: 2
- koff (dansyl-labeled CaM(1TnC)): 2.44 s⁻¹
Compound: Orai-CMBD, 24-residue peptide corresponding to the CaM-binding domain of Orai1 (residues 68-91)

Compound: Troponin C [TnC]
- interaction with ANS [5]: no interaction between TnC and ANS
- binding to / activation of nNOS (nNOS): can neither bind to nor activate nNOS
- affinity for Ca^2+-ATPase (Ca^2+-ATPase): very low affinity
- Ca^2+ affinity of EF4 relative to that of CaM [6]: one order higher
